Key:
Set-up in all cases: key: 0: normal development; 1: Less damaged; 2: Slightly damaged; 3: Moderately damaged; 4: Severely damaged; 5: All killed
green foxtail [1] = assay: Foliar spread test for upland field; type: in vivo, Setaria viridis; conditions: foliar spray 500 ppm, 3 weeks, rank vs non-treated
Procedure, shortened: (§1)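 Post-emergence foliar spray, 500 ppm (wettable powder in water + 0.5% surfactant), on ~2-week-old plants grown in volcanic ash soil; glasshouse, avg 25° C, 3 wk; visual damage score 0–5.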

common lambsquartes = assay: Soil treatment test for upland field; type: in vivo, Chenopodium album; conditions: 500 g/ha, glass house 25° C., 3 weeks
Procedure, shortened: (§2)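 Pre-emergence: seeds sown in Ube alluvial soil in pots, then soil surface sprayed with wettable-powder formulation diluted in water with 0.05% surfactant at 500 g/ha. Plants kept in glasshouse at average 25° C for 3 weeks; injury scored 0 (normal) to 5 (all killed).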

green foxtail [2] = assay: Soil treatment test for upland field; type: in vivo, Setaria viridis; conditions: 500 g/ha, glass house 25° C., 3 weeks
Procedure, shortened: as §2

wheat [3] = assay: Foliar spread test for upland field; type: in vivo; conditions: foliar spray 500 ppm, 3 weeks, rank vs non-treated
Procedure, shortened: (§3)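 Crop seeds sown in volcanic ash soil in Wagner pots were raised about 2 weeks in a glasshouse, then sprayed with wettable-powder formulations diluted to 500 ppm in water with 0.5% surfactant. After 3 weeks at an average 25° C., injury was scored 0 (normal) to 5 (all killed).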

solgum [4] = assay: Foliar spread test for upland field; type: in vivo; conditions: foliar spray 500 ppm, 3 weeks, rank vs non-treated
Procedure, shortened: as §3

corn [5] = assay: Foliar spread test for upland field; type: in vivo; conditions: foliar spray 500 ppm, 3 weeks, rank vs non-treated
Procedure, shortened: as §3

blackgrass = assay: Foliar spread test for upland field; type: in vivo, Alopecurus aegualis; conditions: foliar spray 500 ppm, 3 weeks, rank vs non-treated
Procedure, shortened: as §1

young rice plant = assay: Herbicidal test for paddy field; type: in vivo; conditions: paddy field pot, 500 g/ha dropwise at 1.5 leaf stage of barnyardgrass, 3 weeks, rank vs non-treated
Procedure, shortened: (§4)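 Ube alluvial soil in pots flooded to 3 cm water depth, sown with seeds or tubers. Wettable powder diluted in water with 0.05% surfactant was dripped onto the water at 500 g/ha when barnyardgrass reached the 1.5-leaf stage. After 3 weeks in a glasshouse at an average of 25° C, damage was scored 0 (normal) to 5 (all killed) against untreated pots.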

monochoria = assay: Herbicidal test for paddy field; type: in vivo, Monochoria vaginalis; conditions: paddy field pot, 500 g/ha dropwise at 1.5 leaf stage of barnyardgrass, 3 weeks, rank vs non-treated
Procedure, shortened: as §4

livid amaranth = assay: Soil treatment test for upland field; type: in vivo, Amaranthus lividus; conditions: 500 g/ha, glass house 25° C., 3 weeks
Procedure, shortened: as §2

wheat [6] = assay: Soil treatment test for upland field; type: in vivo; conditions: 500 g/ha, glass house 25° C., 3 weeks
Procedure, shortened: as §2

solgum [7] = assay: Soil treatment test for upland field; type: in vivo; conditions: 500 g/ha, glass house 25° C., 3 weeks
Procedure, shortened: as §2

soybean = assay: Soil treatment test for upland field; type: in vivo; conditions: 500 g/ha, glass house 25° C., 3 weeks
Procedure, shortened: as §2

cotton = assay: Soil treatment test for upland field; type: in vivo; conditions: 500 g/ha, glass house 25° C., 3 weeks
Procedure, shortened: as §2

corn [8] = assay: Soil treatment test for upland field; type: in vivo; conditions: 500 g/ha, glass house 25° C., 3 weeks
Procedure, shortened: as §2

sugar beat [9] = assay: Soil treatment test for upland field; type: in vivo; conditions: 500 g/ha, glass house 25° C., 3 weeks
Procedure, shortened: as §2

annual bluegrass = assay: Soil treatment test for upland field; type: in vivo, Poa annua; conditions: 500 g/ha, glass house 25° C., 3 weeks
Procedure, shortened: as §2

morning glory = assay: Foliar spread test for upland field; type: in vivo, Ipomoea spps.; conditions: foliar spray 500 ppm, 3 weeks, rank vs non-treated
Procedure, shortened: as §1

sugar beat [10] = assay: Foliar spread test for upland field; type: in vivo; conditions: foliar spray 500 ppm, 3 weeks, rank vs non-treated
Procedure, shortened: as §3

SMILES	Effects Green foxtail (green foxtail [1])	Effects Common lambsquarters (common lambsquartes)	Effects Green foxtail (green foxtail [2])	Effects Wheat (wheat [3])	Effects Solgum (solgum [4])	Effects Corn (corn [5])	Effects Blackgrass (blackgrass)	Effect Young rice plant (young rice plant)	Effect Monochoria (monochoria)	Effects Livid amaranth (livid amaranth)	Effects Wheat (wheat [6])	Effects Solgum (solgum [7])	Effects Soybean (soybean)	Effects Cotton (cotton)	Effects Corn (corn [8])	Effects Sugar beat (sugar beat [9])	Effects Annual bluegrass (annual bluegrass)	Effects Morning glory (morning glory)	Effects Sugar beat (sugar beat [10])
CCC(Oc1ccc(F)c(C(F)(F)F)c1)c1nc2cc(Cl)ccc2o1 (centres unmarked) [Compound 139]	4	4	5	2	2	3	2	2	5	5	1	2	1	1	2	5	5	5	–
CCCC(Oc1cccc(C(F)(F)F)c1)c1nc2cc(C#N)c(Cl)cc2o1 (centres unmarked) [Compound 532]	5	5	5	–	2	2	4	–	5	5	2	1	1	1	1	5	5	3	5
CCC(Oc1ccc(F)c(C(F)(F)F)c1)c1nc2cc([N+](=O)[O-])ccc2o1 (centres unmarked) [Compound 177]	5	4	5	2	2	2	2	2	5	5	2	2	1	2	2	5	5	5	–
CCCC(Oc1ccc(F)c(C(F)(F)F)c1)c1nc2cc(Cl)ccc2o1 (centres unmarked) [Compound 141]	4	5	5	2	1	2	4	1	5	5	0	2	2	–	1	5	5	4	–
CCCC(Oc1cccc(C(F)(F)F)c1)c1nc2cc(F)c(C(F)(F)F)cc2o1 (centres unmarked) [Compound 474]	5	5	5	2	2	2	2	–	5	5	1	1	2	1	2	5	5	5	5
CCC(Oc1cccc(C(F)(F)F)c1)c1nc2cc(C#N)c(Cl)cc2o1 (centres unmarked) [Compound 529]	5	5	5	2	3	–	4	–	5	5	–	1	1	–	1	5	5	3	5
CCC(Oc1ccc(F)c(C(F)(F)F)c1)c1nc2cc(Br)ccc2o1 (centres unmarked) [Compound 165]	4	3	5	2	2	2	3	2	5	5	0	1	0	0	2	5	5	4	–
CCC(Oc1cccc(C(F)(F)F)c1)c1nc2cc(F)c(C(F)(F)F)cc2o1 (centres unmarked) [Compound 471]	5	5	5	2	3	2	3	–	5	5	1	3	2	1	–	5	5	5	5
CCCC(Oc1cccc(C(F)(F)F)c1)c1nc2cc(C#N)c(C#N)cc2o1 (centres unmarked) [Compound 317]	5	5	5	2	1	2	2	1	5	5	1	1	1	0	2	5	5	–	5
CCC(Oc1ccc(F)c(C(F)(F)F)c1)c1nc2cc(C(F)(F)F)ccc2o1 (centres unmarked) [Compound 197]	5	4	5	2	2	4	4	3	5	5	2	2	–	3	2	5	5	4	–

Reference: US6706664B1, “Benzoxazole compounds, process for the preparation thereof and herbicides” (UBE Industries, Ltd., priority 1999, dated 2004)
